Results published in paper PMC10143053, “Probing the Interactions of 31 Mycotoxins with Xanthine Oxidase: Alternariol, Alternariol-3-Sulfate, and α-Zearalenol Are Allosteric Inhibitors of the Enzyme” (Toxins, 2023).
Read-outs that look alike come from different tables or passages of the source.

Target: T1, xanthine oxidase (Bos taurus, UniProt P80457)
T1 construct: gene XDH
Experiment: biochemical

T1 sequence (P80457 2-1332): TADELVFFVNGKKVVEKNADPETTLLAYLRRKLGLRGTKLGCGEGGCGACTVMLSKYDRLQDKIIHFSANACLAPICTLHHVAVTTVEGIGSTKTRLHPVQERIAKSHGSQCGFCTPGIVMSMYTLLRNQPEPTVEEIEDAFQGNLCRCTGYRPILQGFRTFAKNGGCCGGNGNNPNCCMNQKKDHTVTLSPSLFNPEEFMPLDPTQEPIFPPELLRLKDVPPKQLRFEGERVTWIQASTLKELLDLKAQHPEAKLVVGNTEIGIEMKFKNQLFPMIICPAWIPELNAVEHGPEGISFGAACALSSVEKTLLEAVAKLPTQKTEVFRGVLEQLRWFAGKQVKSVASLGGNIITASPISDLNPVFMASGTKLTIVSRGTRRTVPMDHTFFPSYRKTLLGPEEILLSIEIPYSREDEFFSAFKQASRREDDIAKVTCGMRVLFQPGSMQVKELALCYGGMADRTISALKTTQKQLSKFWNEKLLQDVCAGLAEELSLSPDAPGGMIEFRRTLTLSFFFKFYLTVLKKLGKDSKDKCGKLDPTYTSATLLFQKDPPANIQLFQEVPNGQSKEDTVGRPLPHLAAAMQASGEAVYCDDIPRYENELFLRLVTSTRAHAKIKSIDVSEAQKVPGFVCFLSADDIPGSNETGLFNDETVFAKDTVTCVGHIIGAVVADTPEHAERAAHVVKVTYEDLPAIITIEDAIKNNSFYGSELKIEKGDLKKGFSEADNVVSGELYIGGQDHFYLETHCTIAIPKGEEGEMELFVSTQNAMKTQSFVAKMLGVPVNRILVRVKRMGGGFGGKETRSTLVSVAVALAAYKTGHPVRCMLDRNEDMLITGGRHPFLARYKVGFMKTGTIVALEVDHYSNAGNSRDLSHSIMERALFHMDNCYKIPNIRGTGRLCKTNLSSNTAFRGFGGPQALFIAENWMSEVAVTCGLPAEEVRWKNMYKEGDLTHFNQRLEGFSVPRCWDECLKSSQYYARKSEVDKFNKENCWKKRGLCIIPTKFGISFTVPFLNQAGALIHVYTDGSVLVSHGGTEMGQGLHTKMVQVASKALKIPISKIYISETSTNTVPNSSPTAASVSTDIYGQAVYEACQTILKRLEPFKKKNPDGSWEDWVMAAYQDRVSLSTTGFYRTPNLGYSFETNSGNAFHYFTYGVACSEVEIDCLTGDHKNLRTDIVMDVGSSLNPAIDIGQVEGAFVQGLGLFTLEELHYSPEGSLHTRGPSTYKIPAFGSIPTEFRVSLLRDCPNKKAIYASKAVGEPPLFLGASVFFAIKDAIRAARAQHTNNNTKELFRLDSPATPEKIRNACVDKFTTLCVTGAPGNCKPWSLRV

Compound	IC50 (read-out: IC50) [µM]	IC50 [µM]
Cc1cc(OS(=O)(=O)O)cc2oc(=O)c3c(O)cc(O)cc3c12 [AS, alternariol-3-sulfate]	15	–
C[C@H]1CCC[C@H](O)CCC/C=C/c2cc(O)cc(O)c2C(=O)O1 [α-ZEL, α-zearalenol]	17.1	–
Cc1cc(O)cc2oc(=O)c3c(O)cc(O)cc3c12 [AOH, alternariol]	–	10.6
